Laboratory results: ChEMBL document CHEMBL1134487, “Design, synthesis, and biological evaluation of analogues of the antitumor agent, 2-(4-[(7-chloro-2-quinoxalinyl)oxy]phenoxy)propionic acid (XK469)” (2001)

How the values were obtained:
Mus musculus [1] = assay: Cytotoxicity against sc transplanted Squam-lung-LC12 tumors of mouse, activity expressed as %body wt loss at the dose of 400 mg/kg, iv; format: functional
Mus musculus [2] = assay: Cytotoxicity against sc transplanted B-16 melanoma tumors of mouse origin, activity expressed as T/C(%) at the dose of 300 mg/kg, iv; format: functional
Mus musculus [3] = assay: Cytotoxicity against sc transplanted Squam-lung-LC12 tumors of mouse origin, activity expressed as cures at the dose of 400 mg/kg, iv; 5/5 cures; format: functional
Mus musculus [4] = assay: Cytotoxicity against iv transplanted AML1498 tumors of mouse origin, activity expressed as %ILS at the dose of 165 mg/kg, iv; format: functional
Mus musculus [5] = assay: Cytotoxicity against iv transplanted AML1498 tumors of mouse origin, activity expressed as log10 Kill at the dose of 165 mg/kg, iv; format: functional, organism-based; parameters: dose 165 mg/kg
Mus musculus [6] = assay: Cytotoxicity against sc transplanted Mam-17/Adr tumors of mouse origin, activity expressed as %body wt. loss at the dose of 620 mg/kg, iv; format: functional
Mus musculus [7] = assay: Cytotoxicity against sc transplanted Mam-17/0 tumors of mouse origin, activity expressed as cures at the dose of 620 mg/kg, iv;p 0/5 cures; format: functional
Mus musculus [8] = assay: Cytotoxicity against sc transplanted colon-26 tumors of mouse origin, activity expressed as cures at the dose of 300 mg/kg, iv; 0/5 cures; format: functional
Mus musculus [9] = assay: Cytotoxicity against sc transplanted Squam-lung-LC12 tumors of mouse origin, activity expressed as log kill at the dose of 400 mg/kg, iv; All cures; format: functional, organism-based; parameters: dose 400 mg/kg
Mus musculus [10] = assay: Cytotoxicity against sc transplanted Mam-16/C/Taxol tumors of mouse origin, activity expressed as %T/C at the dose of 480 mg/kg, iv; format: functional
Mus musculus [11] = assay: Cytotoxicity against sc transplanted Mam-17/0 tumors of mouse origin, activity expressed as log10 Kill at the dose of 620 mg/kg, iv; format: functional, organism-based; parameters: dose 620 mg/kg
Mus musculus [12] = assay: Cytotoxicity against sc transplanted Mam-16/C/Taxol tumors of mouse origin, activity expressed as cures at the dose of 480 mg/kg, iv; 0/5 cures; format: functional
Mus musculus [13] = assay: Cytotoxicity against iv transplanted AML1498 tumors of mouse origin, activity expressed as %body wt. loss at the dose of 165 mg/kg, iv; format: functional
Mus musculus [14] = assay: Cytotoxicity against sc transplanted Panc-02 tumors of mouse origin, activity expressed as log10 Kill at the dose of 600 mg/kg, iv; format: functional, organism-based; parameters: dose 600 mg/kg
Mus musculus [15] = assay: Cytotoxicity against sc transplanted Panc-02 tumors of mouse origin, activity expressed as T/C(%) at the dose of 600 mg/kg, iv; format: functional
Mus musculus [16] = assay: Cytotoxicity against sc transplanted B-16 melanoma tumors of mouse origin, activity expressed as cures at the dose of 300 mg/kg, iv; 0/5 cures; format: functional
Mus musculus [17] = assay: Cytotoxicity against sc transplanted Mam-16/C tumors of mouse origin, activity expressed as cures at the dose of 525 mg/kg, iv; 1/5 cures; format: functional
Mus musculus [18] = assay: Cytotoxicity against sc transplanted B-16 melanoma tumors of mouse origin, activity expressed as log10 Kill at the dose of 300 mg/kg, iv; format: functional, organism-based; parameters: dose 300 mg/kg
Mus musculus [19] = assay: Cytotoxicity against sc transplanted Panc-03 tumors of mouse origin, activity expressed as %T/C at the dose of 328 mg/kg, po; format: functional
Mus musculus [20] = assay: Cytotoxicity against sc transplanted Panc-03 tumors of mouse origin, activity expressed as cures at the dose of 328 mg/kg, po; 4/6 cures; format: functional
Mus musculus [21] = assay: Cytotoxicity against sc transplanted colon-51 tumors of mouse origin, activity expressed as %body wt. loss at the dose of 980 mg/kg, po; format: functional
Mus musculus [22] = assay: In vivo activity tested against C3H mice bearing panc-03 murine tumor measured as% treated/control calculated at 328 mg/kg (po); format: functional
Mus musculus [23] = assay: Cytotoxicity against iv transplanted AML1498 tumors of mouse origin, activity expressed as cures at the dose of 165 mg/kg, iv; 0/5 cures; format: functional
Mus musculus [24] = assay: Cytotoxicity against sc transplanted colon-38 tumors of mouse origin, activity expressed as cures at the dose of 546 mg/kg, iv; 3/5 cures; format: functional
Mus musculus [25] = assay: In vivo activity tested against C3H mice bearing mammary adenocarcinoma -17/ADR tumor measured as activity rating at 620 mg/kg (po); format: functional
Mus musculus [26] = assay: In vivo activity tested against C3H mice bearing mammary adenocarcinoma -17/ADR tumor measured as % treated/control calculated at 620 mg/kg (po); format: functional
Mus musculus [27] = assay: Cytotoxicity against sc transplanted DMS273 sm cell tumors of mouse and human origin, activity expressed as log10 Kill at the dose of 175 mg/kg, iv; format: functional, organism-based; parameters: dose 175 mg/kg
Mus musculus [28] = assay: Cytotoxicity against iv transplanted L1210 tumors of mouse origin, activity expressed as %body wt. loss at the dose of 300 mg/kg, iv; format: functional
Mus musculus [29] = assay: Cytotoxicity against sc transplanted Panc-02 tumors of mouse origin, activity expressed as %body wt. loss at the dose of 600 mg/kg, iv; format: functional
Mus musculus [30] = assay: Cytotoxicity against sc transplanted colon-51 tumors of mouse origin, activity expressed as cures at the dose of 980 mg/kg, po; 1/5 cures; format: functional
Mus musculus [31] = assay: In vivo activity tested against C3H mice bearing panc-03 murine tumor measured as log Kill value was based on tumors that grew at 328 mg/kg (po); format: functional, organism-based; parameters: dose 328 mg/kg
Mus musculus [32] = assay: Cytotoxicity against sc transplanted L1210 tumors of mouse origin, activity expressed as T/C(%) at the dose of 332 mg/kg, iv; format: functional
Mus musculus [33] = assay: Cytotoxicity against sc transplanted colon-26 tumors of mouse origin, activity expressed as log10 Kill at the dose of 300 mg/kg, iv; format: functional, organism-based; parameters: dose 300 mg/kg
Mus musculus [34] = assay: In vivo activity tested against C3H mice bearing panc-03 murine tumor measured as activity rating at 328 mg/kg (po); format: functional
Mus musculus [35] = assay: Cytotoxicity against sc transplanted Mam-17/Adr tumors of mouse origin, activity expressed as T/C(%) at the dose of 620 mg/kg, iv; format: functional
Mus musculus [36] = assay: Cytotoxicity against sc transplanted L1210 tumors of mouse origin, activity expressed as log10 Kill at the dose of 332 mg/kg, iv; format: functional, organism-based; parameters: dose 332 mg/kg
Mus musculus [37] = assay: In vivo activity tested against C3H mice bearing panc-03 murine tumor measured as body weight loss at 328 mg/kg (po); format: functional
Mus musculus [38] = assay: Cytotoxicity against sc transplanted DMS273 sm cell tumors of mouse and human origin, activity expressed as %body wt. loss at the dose of 175 mg/kg, iv; format: functional
Mus musculus [39] = assay: Cytotoxicity against sc transplanted Mam-16/C/Adr tumors of mouse origin, activity expressed as %body wt. loss at the dose of 400 mg/kg, iv; format: functional
Mus musculus [40] = assay: Cytotoxicity against sc transplanted Mam-17/0 tumors of mouse origin, activity expressed as %body wt. loss at the dose of 620 mg/kg, iv; format: functional
Mus musculus [41] = assay: Cytotoxicity against sc transplanted L1210 tumors of mouse origin, activity expressed as %body wt. loss at the dose of 332 mg/kg, iv; format: functional

CC(Oc1ccc(Oc2cnc3ccc(Cl)cc3n2)cc1)C(=O)O (stereo unspecified)
Body weight loss (Mus musculus [1]): -3% | T/C (Mus musculus [2]): 4% | Cures (Mus musculus [3]): 5 | ILS at 165 mg/kg (Mus musculus [4]): 30% | Log kill (Mus musculus [5]): 2 | Body weight loss (Mus musculus [6]): -4% | Cures (Mus musculus [7]): 0 | Cures (Mus musculus [8]): 0 | Log kill (Mus musculus [9]): All cures | T/C (Mus musculus [10]): 14% | Log kill (Mus musculus [11]): 3.4 | Cures (Mus musculus [12]): 0 | Body weight loss (Mus musculus [13]): -7% | Log kill (Mus musculus [14]): 2.8 | T/C (Mus musculus [15]): 9% | Cures (Mus musculus [16]): 0 | Cures (Mus musculus [17]): 1 | Log kill (Mus musculus [18]): 2.6 | T/C (Mus musculus [19]): 0% | Cures (Mus musculus [20]): 4 | Body weight loss (Mus musculus [21]): -5% | T/C (Mus musculus [22]): 0% | Cures (Mus musculus [23]): 0 | Cures (Mus musculus [24]): 3 | Activity rating (Mus musculus [25]): >2.8 | T/C (Mus musculus [26]): 2% | Log kill (Mus musculus [27]): 1.6 | Body weight loss (Mus musculus [28]): -2% | Body weight loss (Mus musculus [29]): -3% | Cures (Mus musculus [30]): 1 | Log kill (Mus musculus [31]): 2.1 | T/C (Mus musculus [32]): 30% | Log kill (Mus musculus [33]): 1.3 | Activity rating (Mus musculus [34]): >2.8 | T/C (Mus musculus [35]): 2% | Log kill (Mus musculus [36]): 0.8 | Body weight loss (Mus musculus [37]): -4% | Body weight loss (Mus musculus [38]): -8% | Body weight loss (Mus musculus [39]): -9% | Body weight loss (Mus musculus [40]): -12% | Body weight loss (Mus musculus [41]): -16%
